Assays:
[1] = biological target: LBAA glyphosate oxidoreductase variant ARG 334 (His334 to Arg) (Ochrobactrum sp. G-1, UniProt D2KI28, H334R/S2A); test: Kinetic analysis of glyphosate oxidoreductase variant ARG 334 (site-directed mutagenesis); assay type: biochemical, bacterial isolate LBAA (Pseudomonas strain LBAA)
[2] = biological target: glyphosate oxidoreductase from LBAA, wild type (w1w2w3: SER84, LYS153, HIS334), SEQ ID NO:5 (Ochrobactrum sp. G-1, UniProt D2KI28, S2A); test: Kinetic analysis of glyphosate oxidoreductase, wild type (crude E. coli lysate, glyoxylate-DNPH assay); assay type: biochemical, bacterial isolate LBAA (Pseudomonas strain LBAA)
Description: An alternate method for the assay of glyphosate oxidoreductase involves reaction of the sample with 2,4-dinitrophenylhydrazine and determination of the amount of the glyoxylate-2,4-dinitrophenylhydrazone by HPLC analysis as described in detail in a later section.
Prior examples of engineered herbicide resistance by enzymatic inactivation of the herbicide have utilized enzymes with an ability to bind and metabilize the herbicides much more efficiently than glyphosate oxidoreductase metabolizes glyphosate.
The mutagenesis procedure used was that of Mn++-poisoned PCR and the template was a linearized glyphosate oxidoreductase gene plasmid containing the synthetic glyphosate oxidoreductase gene (SEQ ID NO:8). The oligonucleotide primers used were homologous to regions in the vector and flanking the glyphosate oxidoreductase gene. The PCR conditions employed were as follows: 1 minute at 94° C., 2 minutes at 55° C., and 3 minutes at 72° C. and with 35 cycles. A 5:1 ratio of dCTP+dGTP+TTP to dATP was used. The reactions contained MnCl2 at 125, 250, 375, or 500 μM. After the reaction, the amplified product was recloned into a vector containing a weak E. coli promoter. This vector was a pBR327 derivative containing the araBAD promoter and suitable cloning sites. One hundred colonies from this cloning step were then screened in E. coli GB993 for improved glyphosate tolerance and utilization phenotypes in media composed of MOPS minimal medium with glyphosate and Pi or with glyphosate alone, respectively. Growth rates were determined by measuring A550 over a 96 hour period. […] The glyphosate oxidoreductase gene was recloned into the expression vector portion and this phenotype verified. All kinetic analysis was performed on crude E. coli lysates. Putative glyphosate oxidoreductase variant proteins were overexpressed after subcloning the NcoI/HindIII variant glyphosate oxidoreductase gene into PrecA-gene10L expression vector. For overexpression in PrecA-gene10L constructs, GB993 cells containing the vector were induced at a Klett=110-120 in M9 minimal medium with 50 μg/ml nalidixic acid and allowed to grow for 2.5 hours at 37° C. with vigorous shaking. Cells were harvested by centrifugation at 4000 g, 5 minutes at 4° C., and resuspend in 100 mM Tris-HCl, pH 7.1, 1 mM EDTA, 35 mM KCl, 20% glycerol, and 1 mM benzamidine at 3 ml/g cell pellet. Lysates were prepared by breaking the cells in a French press, twice, at 1000 psi. […] Protein concentrations were determined using the Bio-Rad protein dye-binding assay. […] Ten minutes was determined to be the optimal time for the enzyme assay using 10 μg lysate. […] Enzyme activity was determined from the amount of glyoxylate-DNPH adduct formed by measuring A520 against a standard of glyoxylate. […]

[3] = tested on: Agrobacterium sp. strain T10 glyphosate oxidoreductase; test: Km of glyphosate oxidoreductase from Agrobacterium sp. strain T10; assay type: biochemical
Method: A population of bacteria was isolated from a fixed-bed immobilized cell column, which employed Mannville R-635 diatomaceous earth beads, by plating on Tryptone Soy Agar (Difco), containing cylcoheximide at 100 ug/ml, and incubating at 28° C. The column had been run for three months on a waste-water feed from the Monsanto Company's Luling, MS, glyphosate production plant. The column contained 50 mg/ml glyphosate and NH3 as NH4Cl. Total organic carbon was 300 mg/ml and BOD's (Biological Oxygen Demand—a measure of “soft” carbon availability) was less than 30 mg/ml. This treatment column has been described (Heitkamp et al., 1990). […] Chromosomal DNA was prepared from this isolate and subjected to the same PCR procedure and with the same primers as described above for the strain LBr. A fragment of the correct size was generated and cloned into the E. coli expression vector. The glyphosate oxidoreductase activity was assayed and the Km for glyphosate also determined: […]

Compound: O=C(O)CNCP(=O)(O)O [glyphosate, N-phosphonomethyl-glycine]
- VmKm (Glyp) [1]: .23
- VmKm ([2]; domain switch experiment, wt (w1w2w3), substrate glyphosate): 0.022
- Km ([2]; read-out: K for glyphosate, general statement on the glyphosate oxidoreductase enzyme): 20 to 30 mM
- VmKm (Glyp) ([2]; wild type): .03
- app Vm (Glyp) ([2]; wild type, pH 7.4, 30° C., enzyme amount by immunoblot): 0.8 U/mg
- Km [3]: 28 mM
